Tests used:
[1] = test system: Na—K—Cl cotransport; assay: Na—K—Cl cotransport measured by 86Rb uptake in Jurkat cells; format: cell-based; conditions: 1 μm isoproterenol, p<0.001
Procedure: Jurkat cells were centrifuged for 15 min at 300×g and resuspended in Dulbecco's modified Eagle's medium (DMEM; ionic composition: 1.8 mM CaCl2, 5.4 mM KCl, 0.8 mM MgSO4, 110 mM NaCl, 0.9 mM NaH2PO4, 0.25 µM Fe(NO3)3; GIBCO, Grand Island, N.Y.) with 10 mM N-2 hydroxyethylpiperazine-N′-2 ethanesulfonic acid (HEPES), pH 7.4 at a final concentration of 5-10×10^6 cells/ml. […] Assays were stopped by aliquoting 100 μl of the reaction mixture into chilled microcentrifuge tubes prefilled with 100 μl of 3 mM BaCl2 and 0.1 mM of ouabain solution layered over 100 μl of a 3:1 of mazola oil to n-butylphthalate mixture. Cells were rapidly sedimented through the oil interface (1 min at 15,000 g). Centrifuge tube tips containing the tip pellets were clipped in the vials and radioactivity was determined by scintillation spectroscopy (Beckman LS 6000).

[2] = test system: cAMP-dependent protein kinase (PKA); assay: cAMP-dependent protein kinase (PKA) activity in digitonin-permeabilized Jurkat cells; format: cell-based; conditions: 5× rat C18 purified Reptimed or 1 μm isoproterenol, basal activity 9 +/−1
Procedure: Cyclic AMP-dependent protein kinase (PKA) activity was assayed in digitonin-permeabilized cells. Jurkat cells were centrifuged at 300×g for 15 min and resuspended in Hanks' balanced salt solution without calcium and with 0.5 mM EDTA, 1 mM magnesium sulfate, and 1 mg/100 ml digitonin. Jurkat cells were incubated for 15 min at 4° C. and then washed twice as above in Hanks' solution without digitonin and finally resuspended at a final concentration of 10 to 20×10^6 cells/ml for assay. Cells were either untreated, treated with 5×rat C18 purified […], or with 1 μm isoproterenol, or with both 5[…] and 1 μm isoproterenol. PKA activity was assessed by the phosphorylation of the synthetic PKA substrate (Kemptide-Sigma Chemical Corporation, St. Louis, Mo.). Phosphorylated substrate was separated by adherence to phosphocellulose. After six washes in phosphoric acid, radioactivity on the phosphocellulose strips was assessed by scintillation spectroscopy.

CC(C)NCC(O)c1ccc(O)c(O)c1 (centres unmarked) [isoproterenol]
Na—K—Cl cotransport (86Rb uptake) [1]: 38 +/−8 % of control | PKA activity [2]: significant increase

Source: patent publication US20010022976A1, “Immunosuppressive and tumour-suppressive bone marrow factor” (London Health Sciences Centre, priority 1995, published 2001)
